According to patent US11911481B2, “Compositions and methods for treating RSV-infections” (UNITED STATES GOVERNMENT AS REPRESENTED BY THE DEPARTMENT …, priority 2018, dated 2024):

Legend:
RSV rA2-L19F = experiment: Inhibition of RSV rA2-L19F fusion by HR2D peptide in A549 cells; assay type: cell-based; conditions: A549 cells pre-treated with 5 or 20 μM 30 min before infection, MOI 0.1, 24 hours
Experimental: Fluorescence microscopy images of A549 cells pre-treated with 5 or 20 μM HR2D peptide 30 min before RFP-RSV-Ln19-A2 infection MOI 0.1 for 24 hours. RFP intensity quantified with ImageJ.
RFP intensity was quantified with ImageJ.

[1] = HR2D peptide release from the outer chitosan NP-layer in PBS and in 10% FBS; assay type: physicochemical; conditions: within 10 minutes
Experimental: FIGS. 3A-C show DNA-encapsulation and HR2D-release.
The NPs were characterized for the plasmid encapsulation and integrity following synthesis, HR2D peptide release from the outer chitosan NP-layer in PBS and in 10% FBS and their cell (FIG. 3). First, chitosan-DNA nanoparticles were prepared by a complex coacervation method. In order to determine the optimal formulation, nanoparticles of different Chitosan/pDNA ratios were prepared and characterized. The binding of pDNA to chitosan for the formulations prepared herein was analyzed by gel electrophoresis.
Chitosan/pDNA NPs were coated with a liposomal layer after co-extrusion of chitosan-pDNA NPs with pre-formed liposomes. This layer ensures the stability and integrity of the plasmid DNA and the endosomal escape and also allows for functionalization of the nanoparticle surface. The liposomal layer was then coated with another layer of chitosan complexed with fusion inhibitor HR2-D peptide.

DACISQVNECINQSLAFICKSDELLCNT [HR2D peptide]
RFP expression (RSV rA2-L19F): significantly lower | peptide released from the outer layer [1]: 90%
